Columns and labels:
[1] = inhibition of exploration (Planche-a-Trous situation); assay type: in vivo, Mouse (albino, NMRI); details: mouse, oral, suspension in olive oil or gum arabic; 50% decrease of exploration
Description: (§1) Those compounds of the formula I wherein R is methyl, ethyl and isopropyl and the structurally most closely related compound disclosed in the prior art, namely 1-[4-(4-fluorophenyl)-4-oxobutyl]-4-benzamidopiperidine disclosed in British patent specification No. 1,345,872, were tested for adrenaline-antagonistic activity, inhibition of locomotion, inhibition of exploration and toxicity by standard pharmacological test methods, and in each case the median effective dose (ED50) or the median lethal dose (LD50), respectively, were calculated graphically from dose-activity graphs. Albino mice (NMRI) having a body weight of 20-25 gm were used as the test animals, 10 animals per dose and untreated controls. The test compounds were administered orally in suspension in olive oil or gum arabic.
2. The inhibiting effect on exploration was determined by the method of J.R. Borssin et al, Therapie 19, 571 (1964). The ED50 is the dose which produces a 50% decrease of exploration in the Planche-a-Trous situation.

[2] = system: adrenaline (epinephrine); assay: adrenaline-antagonistic activity (protection against a lethal dose of adrenaline); assay type: in vivo, Mouse (albino, NMRI); details: mouse, oral, suspension in olive oil or gum arabic; 50% protection against lethal dose of adrenaline; read-out: Adrenaline-antagonism (ED50)
Description: as §1
1. The adrenaline-antagonistic activity was determined by the method of P.A.J. Janssen et al, Arzneimittelforschung (Drug Research) 13, 203 (1963). […] The ED50 is the dose which produces a 50% protection against a lethal dose of adrenaline (epinephrine).

[3] = toxicity (24 hours observation); details: in vivo, mouse, oral, suspension in olive oil or gum arabic
Description: as §1
4. The toxicity was determined over an observation period of 24 hours. The LD50 was calculated by the method J.T. Litchfield and F. Wilcoxon, J. Pharm. Exp. Ther. 96, 99 (1949).

[4] = inhibition of locomotion (open field test); assay type: in vivo, Mouse (albino, NMRI); details: mouse, oral, suspension in olive oil or gum arabic; 50% attenuation of locomotion
Description: as §1
3. The inhibiting effect on locomotion was determined by the method of P.A.J. Janssen et al, Psychopharmacologia 1, 389 (1960). The ED50 is the dose which produces a 50% attenuation of locomotion in the open field test.

SMILES	ED50 [1]	ED50 [2]	LD50 at 24 h [3]	ED50 [4]
O=C(CCCN1CCC(NC(=O)c2ccccc2)CC1)c1ccc(F)cc1 [C6 H5, 1-[4-(4-fluorophenyl)-4-oxobutyl]-4-benzamidopiperidine, reference compound]	45 mg/kg	3.3 mg/kg	300 mg/kg	135 mg/kg
CC(=O)NC1CCN(CCCC(=O)c2ccc(F)cc2)CC1 [Example 1]	8 mg/kg	0.06 mg/kg	1050 mg/kg	4 mg/kg
CCC(=O)NC1CCN(CCCC(=O)c2ccc(F)cc2)CC1 [Example 2, N-[3'-(p-fluoro-benzoyl)-n-propyl]-4-(propionyl-amino) -piperidine]	4.4 mg/kg	0.1 mg/kg	1160 mg/kg	6 mg/kg
CC(C)C(=O)NC1CCN(CCCC(=O)c2ccc(F)cc2)CC1 [Example 4, N-[3'-(p-fluoro-benzoyl)-n-propyl]-4-(isobutyryl-amino) -piperidine]	9 mg/kg	0.58 mg/kg	1850 mg/kg	10 mg/kg
